Measured values taken from US5004756A, “Anti-cancer activity potentiator” (priority 1988, dated 1991).
Values after ≈ are worked out from the molar mass of the structure shown. Like-named read-outs stand apart in the source and are kept apart here.

Legend:
V79/S [1] = assay: Colony formation (proliferation) inhibition, sensitive Chinese hamster cells (A-I Part 1); type: cell-based; conditions: Cricetulus griseus, 216 h
Description: (§1) Sensitive cell line V79/S and ADM-resistant cell line V79/ADM of the Chinese hamster were used, and sensitive cell line PLC/S and cholchicin-resistant cell line PLC/Col, as human hepatoma cells.
(§2) The sensitive cell lines (400 cells) or the resistant cell lines (600 cells) were each incubated for 24 hours in 10 ml of Eagle's MEM medium containing 10% bovine serum. Each of the drugs indicated in Table 1 below was dissolved in ethanol, and 50 microliters of the resulting solution was added to the medium. The incubation was further carried out for 9 days. The concentration of the drug which inhibits 50% of the colony formation (proliferation) of the tumor cells was calculated.
(§3) V79/S and V79/ADM were tested by using all of the drugs described above, but PLC/S and PLC/Col were tested by using only the malate of formula (I), adriamycin and peplomycin.
(§4) The concentrations (micrograms/ml) required to inhibit 50% of the proliferation of the tumor cells, expressed by IC50, are shown in Table 1.

L5178Y/ACR = assay: Anti-cancer activity potentiating action, colony formation, aclarubicin-resistant mouse leukemia cells (table head prints PLC/ACR); type: cell-based; conditions: for IC50: Mus musculus, L5178Y
Description: (§5) The anti-cancer activity potentiating action of the malate of formula (I) was examined using Chinese hamster cells (sensitive cell line V79/S and ADM-resistant cell line V79/ADM), human hepatoma cells (sensitive cell line PLC/S and colchicin-resistant cell line PLC/Col) and mouse leukemia cells (sensitive cell line L5178Y/S) and aclarubicin-resistant cell line L5178Y/ACR).
(§6) Of these tumor cells, the sensitive cells (400 cells) and the resistant cells (600 cells) were each incubated in 10 ml of Eagle's MEM medium containing 10% bovine serum for 24 hours, and then each of the test drugs indicated in Table 6 was added. Thereafter, the incubation was carried out for 9 days. The concentration (IC50 : micrograms/ml) of the test drug required to inhibit 50% of the colony formation (proliferation) of the tumor cells was calculated.
(§7) Adriamycin (ADM) and aclarubicin (ACR) as anti-cancer agents were used in combination with 20 micrograms/ml of the malate of formula (I).

V79/ADM [2] = assay: Colony formation (proliferation) inhibition, ADM-resistant Chinese hamster cells (A-I Part 1); type: cell-based; conditions: Cricetulus griseus, 216 h
Description: as §1, §2, §3, §4

V79/ADM [3] = assay: Anti-cancer activity potentiating action, colony formation, V79/ADM resistant cells (A-III); type: cell-based, Chinese hamster; conditions: for IC50: Cricetulus griseus
Description: as §5, §6
(§8) (A) Chinese hamster V79 cells
(§9) As anti-cancer agents, there were used adriamycin (ADM), aclarubicin (ACR), actinomycin D (ACD), 5-fluorouracil (5-FU), cytarabin (Ara-C), cisplatin (CDDP), methotrexate (MTX), mitomycin C (MMC), nimustine (ACNU), mitoxantrone, etoposide ([…]), vincristine (VCR), bleomycin (BLM) and peplomycin (PEP). For the sensitive cells, the anti-cancer agents were used in combination with 10 micrograms/ml of the malate of formula (I), and for the resistant cells, the anti-cancer agents were used in combination with the malate of formula (I) 3 micrograms/ml, 5 micrograms/ml, and 10 micrograms/ ml.

L5178Y/S = assay: Anti-cancer activity potentiating action, colony formation, mouse leukemia sensitive cells (table head prints PLC/S); type: cell-based; conditions: head prints PLC/S (parent cells); for IC50: Mus musculus, L5178Y
Description: as §5, §6, §7

V79/S [4] = assay: Anti-cancer activity potentiating action, colony formation, V79/S parent cells (A-III); type: cell-based, Chinese hamster; conditions: for IC50: Cricetulus griseus
Description: as §5, §6, §8, §9

[5] = test system: clinically isolated human cancer cells (lung adenocarcinoma, lung squamous cell carcinoma, osteosarcoma, ovarian carcinoma); assay: Anti-tumor activity on clinically isolated human cancer cells, morphological changes (A-I Part 2); type: cell-based
Description: Lung adenocarcinoma, lung squamous cell carcinoma, osteosarcoma and ovarian carcinoma were selected as clinically isolated human cancer cells, and the anti-tumor activities of various drugs were examined. Specifically, various tumor tissues were individually cut to thin pieces by a razor, and by washing in saline by using a 1 mm mesh, the connective tissues were removed. The resulting solution was centrifuged at 1000 rpm for 1 minute to remove necrotizing substances. Washing with saline gave tumor cells.
They were incubated at 37° for 4 to 8 hours. Thereafter, pumping was carried out to disperse the tissue pieces. Then, centrifugation at 1000 rpm for 5 minutes, cell coating and Giemsa staining were performed. The anti-tumor activity of each drug was examined on the basis of observation of the morphological changes of the tumor cells under a microscope.
The experiment was conducted on two examples of each tumor cells (total 8 examples).

PLC/Col [6] = assay: Colony formation (proliferation) inhibition, colchicin-resistant human hepatoma cells (A-I Part 1); type: cell-based; conditions: Homo sapiens, 216 h
Description: as §1, §2, §3, §4

PLC/Col [7] = assay: Anti-cancer activity potentiating action, colony formation, PLC/Col resistant cells (A-III); type: cell-based, human; conditions: for IC50: Homo sapiens
Description: as §5, §6
(§10) As anti-cancer agents, adriamycin (ADM) and peplomycin (PEP) were used in combination with the malate of formula (I) (5 micrograms/ml).

[8] = test system: Human stomach cancer cell line H-81; assay: Anti-cancer activity potentiating action in nude mice with human stomach cancer H-81 (A-V); type: in vivo, human tumor in ICR nude mice
From the text: ICR nude mice (4-5 weeks old; 7 per group) were used. Human stomach cancer cell line H-81 was used as tumor cells. Tissue pieces, 2 mm in square, were taken, and transplanted subcutaneously to the right back portion of the nude mice. […] The sequence of the drug administration was as follows: […] The administration was further repeated every five days from the day on which the administration was first carried out. The total number of administrations of each drug was four. […] The measurement was made on the days on which the drugs were administered, and four weeks after the start of drug administration.

Lewis lung cancer cells = assay: Life prolongation of BDF1 mice with Lewis lung cancer (A-II Part 2); type: in vivo, mouse (male BDF1)
Description: Male BDF1 mice having a body weight of 20±2 g (6 per group) were used, and as tumor cells, Lewis lung cancer cells were transplanted under the skin of the side abdomen of each of the mice at a rate of 10^5 cells. […] The life prolongation rate of the mice in each group was determined by the treated group/non-treated control group (T/C %).

PLC/S [9] = assay: Anti-cancer activity potentiating action, colony formation, PLC/S parent cells (A-III); type: cell-based, human; conditions: for IC50: Homo sapiens
Description: as §5, §6, §10

PLC/S [10] = assay: Colony formation (proliferation) inhibition, sensitive human hepatoma cells (A-I Part 1); type: cell-based; conditions: Homo sapiens, 216 h
Description: as §1, §2, §3, §4

[11] = test system: human tumor cells (muscle fibrosarcoma HT-1080); assay: Anti-cancer activity potentiating action in nude mice with HT-1080 (A-VI); type: in vivo, human tumor in ICR nude mice; conditions: ADM 4 mg/kg i.v., days 5, 10, 15, 20; day 36
Description: ICR nude mice, 6 per group, were used, and the experiment was conducted substantially in accordance with the procedure described in A-V.
As tumor cells, human tumor cells (muscle fibrosarcoma HT-1080) were used, and 5 days after the transplantation, drug administration was started.
The administration was further performed every 5 days from the day of starting the administration, and the total number of administrations was therefore 4.
Mitomycin C (MMC) was tested by the same way as above.
Thirty-six days after the transplantation of the tumor, a tumor mass was extracted and its weight was measured. From the difference of the weight of the tumor from the non-treated control group, the tumor growth inhibition ratio (%) was calculated.

[12] = alone, Table 7 lower part, read-out: IC50, anti-cancer agent alone
[13] = with compound (I) 20 μg/ml, read-out: IC50 in combination with compound (I)
[14] = read-out: IC50, anti-cancer agent alone
[15] = read-out: IC50 in combination with compound (I)
[16] = V79/ADM, with compound (I) 10 μg/ml
[17] = V79/S, with compound (I) 10 μg/ml

## CC[C@@]1(O)C[C@H](O[C@H]2C[C@H](N(C)C)[C@H](O[C@H]3C[C@H](O)[C@H](O[C@H]4CCC(=O)[C@H](C)O4)[C@H](C)O3)[C@H](C)O2)c2c(cc3c(c2O)C(=O)c2c(O)cccc2C3=O)[C@H]1C(=O)OC [ACR, aclarubicin]
V79/S [1]
  IC50: 0.037 µg/mL (≈ 0.0456 µM)
L5178Y/ACR; [12]
  IC50: 0.07 µg/mL
L5178Y/ACR; [13]
  IC50: 0.043 µg/mL
L5178Y/ACR; with compound (I) 20 μg/ml
  Potentiation activity: 1.8 times
V79/ADM [2]
  IC50: 0.27 µg/mL (≈ 0.333 µM)
V79/ADM [3]; [14]
  IC50: 0.27 µg/mL
V79/ADM [3]; [15]
  IC50: 0.024 µg/mL
V79/ADM [3]; [16]
  Potentiation activity: 11.3 times
L5178Y/S; [12]
  IC50: 0.019 µg/mL
L5178Y/S; [13]
  IC50: 0.017 µg/mL
L5178Y/S; with compound (I) 20 μg/ml
  Potentiation activity: 1.0 times
V79/S [4]; [14]
  IC50: 0.037 µg/mL
V79/S [4]; [15]
  IC50: 0.027 µg/mL
V79/S [4]; [17]
  Potentiation activity: 1.37 times
[5]; 0.2 μg/ml
  Efficacy ratio (rated significant by Fisher's test): 2/8

## COc1cccc2c1C(=O)c1c(O)c3c(c(O)c1C2=O)C[C@@](O)(C(=O)CO)C[C@@H]3O[C@H]1C[C@H](N)[C@H](O)[C@H](C)O1 [ADM, adriamycin]
V79/S [1]
  IC50: 0.057 µg/mL (≈ 0.105 µM)
PLC/Col [6]
  IC50: 0.08 µg/mL (≈ 0.147 µM)
L5178Y/ACR; [12]
  IC50: 0.06 µg/mL
L5178Y/ACR; [13]
  IC50: 0.18 µg/mL
L5178Y/ACR; with compound (I) 20 μg/ml
  Potentiation activity: 3.7 times
PLC/Col [7]; [14]
  IC50: 0.08 µg/mL
PLC/Col [7]; [15]
  IC50: 0.027 µg/mL
PLC/Col [7]; PLC/Col, with compound (I) 5 μg/ml
  Potentiation activity: 3.0 times
[8]; 2 mg/kg i.v., 4 weeks later, **p < 0.1 vs control
  Tumor growth inhibition rate: 45.2%
[8]; 2 mg/kg i.v., 5 days later
  Tumor growth inhibition rate: 16.5%
[8]; 2 mg/kg i.v., 10 days later
  Tumor growth inhibition rate: 45.7%
[8]; 2 mg/kg i.v., 15 days later
  Tumor growth inhibition rate: 49.5%
[8]; ADM 5 mg/kg i.v. singly, 4 weeks later, *p < 0.5 vs control
  Tumor growth inhibition rate: 59.7%
V79/ADM [2]
  IC50: 8.8 µg/mL (≈ 16.2 µM)
V79/ADM [3]; V79/ADM, alone, Table 6, read-out: IC50, anti-cancer agent alone
  IC50: 8.8 µg/mL
V79/ADM [3]; V79/ADM, with compound (I) 10 μg/ml, read-out: IC50 in combination with compound (I)
  IC50: 0.25 µg/mL
V79/ADM [3]; [16]
  Potentiation activity: 35.2 times
Lewis lung cancer cells; 1.25 mg/kg i.v.
  T/C (life prolongation rate): 218%
Lewis lung cancer cells; 2.5 mg/kg i.v. (lipid emulsion calculated as malate)
  T/C (life prolongation rate): 173%
Lewis lung cancer cells; 5.0 mg/kg i.v. (lipid emulsion calculated as malate)
  T/C (life prolongation rate): 241%
PLC/S [9]; [14]
  IC50: 0.005 µg/mL
PLC/S [9]; [15]
  IC50: 0.0053 µg/mL
PLC/S [9]; PLC/S, with compound (I) 5 μg/ml
  Potentiation activity: 1.0 times
L5178Y/S; [12]
  IC50: 0.048 µg/mL
L5178Y/S; [13]
  IC50: 0.016 µg/mL
L5178Y/S; with compound (I) 20 μg/ml
  Potentiation activity: 3.0 times
PLC/S [10]
  IC50: 0.005 µg/mL (≈ 0.0092 µM)
[11]
  Tumor growth inhibition ratio: 96.1%
  Tumor weight: 0.14 ± 0.32
V79/S [4]; V79/S, alone, Table 6, read-out: IC50, anti-cancer agent alone
  IC50: 0.057 µg/mL
V79/S [4]; V79/S, with compound (I) 10 μg/ml, read-out: IC50 in combination with compound (I)
  IC50: 0.008 µg/mL
V79/S [4]; [17]
  Potentiation activity: 7.1 times
[5]; 0.3 μg/ml
  Efficacy ratio (rated significant by Fisher's test): 3/8
